Reference: publication PMC9303275, “Direct adenylation from 5′-OH-terminated oligonucleotides by a fusion enzyme containing Pfu RNA ligase and T4 polynucleotide kinase” (Nucleic Acids Research, 2022)

Tests used:
[1] = target: T1, Pfu RNA ligase (Pfu Rnl) (Pyrococcus furiosus, UniProt Q8U3V2); test: oligonucleotide adenylation, denaturing urea-PAGE, SYBR Gold; assay type: biochemical
T1 construct: gene PF0353; full length, 379 aa, N-terminal 8xHis tag (not reported cut), codon optimised, pET28a, E. coli BL21(DE3), ~42 kDa, mainly homodimer
T1 sequence (Q8U3V2 1-379): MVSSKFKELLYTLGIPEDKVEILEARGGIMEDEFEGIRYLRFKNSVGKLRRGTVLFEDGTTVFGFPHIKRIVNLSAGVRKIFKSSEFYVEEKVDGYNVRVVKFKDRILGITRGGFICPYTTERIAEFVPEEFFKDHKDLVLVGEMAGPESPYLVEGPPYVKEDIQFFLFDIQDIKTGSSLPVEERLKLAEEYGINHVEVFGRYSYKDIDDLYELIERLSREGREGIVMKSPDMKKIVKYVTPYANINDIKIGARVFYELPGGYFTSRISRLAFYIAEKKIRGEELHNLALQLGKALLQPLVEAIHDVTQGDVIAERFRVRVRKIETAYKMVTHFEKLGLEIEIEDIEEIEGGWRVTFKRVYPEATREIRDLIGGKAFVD

[2] = target: T2, Mth RNA ligase (Mth Rnl) (Methanothermobacter thermautotrophicus, UniProt O27289); test: oligonucleotide adenylation, denaturing urea-PAGE; assay type: biochemical; conditions: 5'-phosphorylated 55-nt ssDNA; commercial kit protocol
T2 construct: gene MTH_1221; commercial enzyme (New England Biolabs, 5' DNA adenylation kit)
T2 sequence (O27289 1-381): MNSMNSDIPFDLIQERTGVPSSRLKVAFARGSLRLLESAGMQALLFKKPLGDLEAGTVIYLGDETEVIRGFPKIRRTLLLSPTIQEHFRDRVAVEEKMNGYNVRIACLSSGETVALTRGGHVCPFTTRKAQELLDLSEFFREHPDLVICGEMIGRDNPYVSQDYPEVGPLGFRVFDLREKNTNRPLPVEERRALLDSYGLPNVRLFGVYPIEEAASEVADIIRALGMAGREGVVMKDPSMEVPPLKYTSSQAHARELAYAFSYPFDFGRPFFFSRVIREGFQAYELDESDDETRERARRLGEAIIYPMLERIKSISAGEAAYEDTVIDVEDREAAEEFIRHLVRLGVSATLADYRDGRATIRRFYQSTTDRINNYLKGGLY

[3] = target: the molecule itself; test: SEC; gel filtration on HiLoad 26/600 Superdex 200 pg, 50 mM phosphate, 150 mM NaCl, pH 7.0, 2.6 ml/min; elution volumes compared with molecular weight standards; each protein loaded separately

Nc1ncnc2c1ncn2[C@@H]1O[C@H](COP(=O)(O)OP(=O)(O)O)[C@@H](O)[C@H]1O [ADP]
oligonucleotide adenylation, denaturing urea-PAGE, SYBR Gold ([1]; 5'-phosphorylated 17-nt and 55-nt ssDNA, 5 mM MgCl2, 70 mM Tris-HCl pH 7.0, 80 °C, weak activity): weak catalytic activity with ADP and almost no catalytic activity with AMP

Nc1ncnc2c1ncn2[C@@H]1O[C@H](COP(=O)(O)OP(=O)(O)OP(=O)(O)O)[C@@H](O)[C@H]1O [ATP]
oligonucleotide adenylation, denaturing urea-PAGE, SYBR Gold ([1]; 5'-phosphorylated ssDNA, 5 mM MgCl2, 70 mM Tris-HCl pH 7.0, 5 mM DTT, 80 °C, 30 min): Pfu Rnl showed the best activity with ATP as the adenosyl source | oligonucleotide adenylation, denaturing urea-PAGE [2]: As expected, both enzymes achieved near complete conversion

B1: Pfu RNA ligase (enzyme, Pyrococcus furiosus, UniProt Q8U3V2 1-379, looked up)
chain: MVSSKFKELLYTLGIPEDKVEILEARGGIMEDEFEGIRYLRFKNSVGKLRRGTVLFEDGTTVFGFPHIKRIVNLSAGVRKIFKSSEFYVEEKVDGYNVRVVKFKDRILGITRGGFICPYTTERIAEFVPEEFFKDHKDLVLVGEMAGPESPYLVEGPPYVKEDIQFFLFDIQDIKTGSSLPVEERLKLAEEYGINHVEVFGRYSYKDIDDLYELIERLSREGREGIVMKSPDMKKIVKYVTPYANINDIKIGARVFYELPGGYFTSRISRLAFYIAEKKIRGEELHNLALQLGKALLQPLVEAIHDVTQGDVIAERFRVRVRKIETAYKMVTHFEKLGLEIEIEDIEEIEGGWRVTFKRVYPEATREIRDLIGGKAFVD
notes: Pfu RNA ligase (Pfu Rnl) of Pyrococcus furiosus, encoded by the PF0353 gene, 379 amino acids, full length; No tag removal is described; also called Pfu Rnl; Q8U3V2 protein; source: E. coli BL21(DE3), purified (HisTrap FF, HiTrap Heparin HP)
stoichiometry N [3]: 2
